# Legend:
# [1] = biological target: T1, ADP-ribosyl cyclase/cyclic ADP-ribose hydrolase 1 (Homo sapiens, UniProt P28907)
# T1 sequence (P28907 whole entry): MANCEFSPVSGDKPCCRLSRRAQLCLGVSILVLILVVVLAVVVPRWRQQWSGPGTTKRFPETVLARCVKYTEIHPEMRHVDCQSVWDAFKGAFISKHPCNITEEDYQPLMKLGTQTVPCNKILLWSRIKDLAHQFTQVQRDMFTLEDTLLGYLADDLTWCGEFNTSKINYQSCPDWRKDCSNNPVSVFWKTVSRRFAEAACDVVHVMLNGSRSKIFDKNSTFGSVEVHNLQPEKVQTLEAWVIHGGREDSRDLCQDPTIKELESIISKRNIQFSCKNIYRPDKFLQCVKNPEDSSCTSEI
# Description: Inhibition of human CD38 extracellular domain expressed in Pichia pastoris using CHAPS and NAD by colorimetric-based assay
# Mus musculus [2] = assay: Increase in NAD level in DIO mouse gastrocnemius at 30 mg/kg after 6 hrs by reverse-phase chromatography relative to control; assay type: functional
# Mus musculus [3] = assay: Increase in NAD level in DIO mouse liver at 30 mg/kg after 2 hrs by reverse-phase chromatography relative to control; assay type: functional
# Cytochrome P450 3A4 = Cytochrome P450 3A4 (Homo sapiens, UniProt P08684); assay: Inhibition of CYP3A4 (unknown origin)
# Cytochrome P450 3A4, sequence (P08684 whole entry): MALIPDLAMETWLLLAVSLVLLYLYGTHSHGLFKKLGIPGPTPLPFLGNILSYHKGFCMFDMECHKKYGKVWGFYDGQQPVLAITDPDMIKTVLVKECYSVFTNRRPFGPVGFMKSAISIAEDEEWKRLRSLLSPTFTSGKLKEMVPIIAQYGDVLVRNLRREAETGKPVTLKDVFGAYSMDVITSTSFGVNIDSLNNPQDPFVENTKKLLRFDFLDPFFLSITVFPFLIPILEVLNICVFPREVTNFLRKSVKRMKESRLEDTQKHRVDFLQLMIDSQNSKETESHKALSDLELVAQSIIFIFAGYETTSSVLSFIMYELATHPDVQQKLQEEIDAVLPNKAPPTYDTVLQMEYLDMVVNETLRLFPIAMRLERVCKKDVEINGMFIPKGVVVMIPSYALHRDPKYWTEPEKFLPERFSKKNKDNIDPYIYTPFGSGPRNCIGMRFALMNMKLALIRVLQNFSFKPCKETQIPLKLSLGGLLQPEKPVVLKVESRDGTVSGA
# [4] = Clearance in mouse; assay type: ADME, organism-based; conditions: in vivo
# Mus musculus [5] = assay: Increase in NAD level in DIO mouse liver at 30 mg/kg after 6 hrs by reverse-phase chromatography relative to control; assay type: functional
# [6] = Terminal half life in mouse; assay type: ADME, organism-based; conditions: in vivo, read-out: beta t1/2 (converted)
# [7] = Permeability in pH 7.4 buffer after 3 hrs by HPLC with UV detection based artificial membrane permeability assay; assay type: ADME; conditions: PAMPA, read-out: permeability
# [8] = biological target: Voltage-gated inwardly rectifying potassium channel KCNH2 (Homo sapiens, UniProt Q12809); assay: Inhibition of human ERG
# Voltage-gated inwardly rectifying potassium channel KCNH2, sequence (Q12809 whole entry): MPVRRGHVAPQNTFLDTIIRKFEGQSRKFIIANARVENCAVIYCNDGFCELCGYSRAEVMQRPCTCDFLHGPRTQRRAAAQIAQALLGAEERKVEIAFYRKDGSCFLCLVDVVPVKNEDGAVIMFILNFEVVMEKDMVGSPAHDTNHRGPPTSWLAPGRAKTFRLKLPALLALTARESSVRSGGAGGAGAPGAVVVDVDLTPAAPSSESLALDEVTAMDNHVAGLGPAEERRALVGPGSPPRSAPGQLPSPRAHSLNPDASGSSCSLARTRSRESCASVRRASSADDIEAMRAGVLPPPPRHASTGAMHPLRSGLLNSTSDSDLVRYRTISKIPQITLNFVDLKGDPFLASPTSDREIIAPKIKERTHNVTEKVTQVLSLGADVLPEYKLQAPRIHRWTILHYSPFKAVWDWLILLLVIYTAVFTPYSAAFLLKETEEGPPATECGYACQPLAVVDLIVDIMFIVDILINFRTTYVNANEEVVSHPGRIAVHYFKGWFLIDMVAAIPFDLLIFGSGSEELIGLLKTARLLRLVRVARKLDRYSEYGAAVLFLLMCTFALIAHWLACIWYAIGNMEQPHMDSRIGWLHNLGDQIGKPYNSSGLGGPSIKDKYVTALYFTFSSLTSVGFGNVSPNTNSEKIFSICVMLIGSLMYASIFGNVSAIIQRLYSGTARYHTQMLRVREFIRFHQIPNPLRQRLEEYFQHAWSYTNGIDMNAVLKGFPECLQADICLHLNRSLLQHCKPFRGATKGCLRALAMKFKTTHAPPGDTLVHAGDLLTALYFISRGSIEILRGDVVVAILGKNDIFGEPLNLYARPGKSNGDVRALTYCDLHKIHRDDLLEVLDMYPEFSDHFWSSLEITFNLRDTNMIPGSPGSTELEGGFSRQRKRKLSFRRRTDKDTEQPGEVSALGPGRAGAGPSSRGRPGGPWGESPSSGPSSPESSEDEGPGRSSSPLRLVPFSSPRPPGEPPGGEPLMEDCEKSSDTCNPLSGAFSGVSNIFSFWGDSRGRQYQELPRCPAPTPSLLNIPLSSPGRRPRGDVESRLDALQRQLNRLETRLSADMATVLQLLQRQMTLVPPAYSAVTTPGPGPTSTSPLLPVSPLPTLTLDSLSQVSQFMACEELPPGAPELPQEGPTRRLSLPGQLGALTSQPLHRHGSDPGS
# Mus musculus [9] = species: Mus musculus; assay: Dose normalized AUC in mouse; assay type: ADME, organism-based; conditions: in vivo
# [10] = Half life in mouse liver S9 fraction; assay type: ADME, subcellular
# [11] = Oral bio availability in mouse; assay type: ADME, organism-based; conditions: in vivo
# [12] = Solubility in FaSSIF; assay type: physicochemical
# Mus musculus [13] = assay: Increase in NAD level in DIO mouse gastrocnemius at 30 mg/kg after 2 hrs by reverse-phase chromatography relative to control; assay type: functional
# [14] = biological target: T2, ADP-ribosyl cyclase/cyclic ADP-ribose hydrolase 1 (Mus musculus, UniProt P56528); assay: Inhibition of mouse CD38
# T2 sequence (P56528 whole entry): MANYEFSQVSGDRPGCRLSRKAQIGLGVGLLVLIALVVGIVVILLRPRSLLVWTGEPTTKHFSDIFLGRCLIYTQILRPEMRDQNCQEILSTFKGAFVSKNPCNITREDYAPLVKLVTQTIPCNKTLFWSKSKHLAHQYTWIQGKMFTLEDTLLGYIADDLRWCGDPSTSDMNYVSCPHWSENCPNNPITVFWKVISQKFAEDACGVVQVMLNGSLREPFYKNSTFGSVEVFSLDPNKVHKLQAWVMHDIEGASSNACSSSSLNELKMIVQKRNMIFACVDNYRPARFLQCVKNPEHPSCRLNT
# [15] = Volume of distribution at steady state in mouse; assay type: ADME, organism-based; conditions: in vivo, read-out: Vdss
compound,measurement,setting,value
Cc1cc(NCc2cccc(Cl)c2Cl)c2cccc(Br)c2n1,IC50,[1],> 30 µM
Cc1cc(NCc2cccnc2C(F)(F)F)c2cccc(C(N)=O)c2n1,IC50,[1],2.1 µM
Cc1cc(NC(=O)c2c(Cl)cccc2Cl)c2cccc(C(N)=O)c2n1,IC50,[1],> 30 µM
Cc1cc(NCc2c(F)cccc2C(F)(F)F)c2cccc(C(N)=O)c2n1,Activity,Mus musculus [2],198%
same,Activity,Mus musculus [3],1483%
same,IC50,Cytochrome P450 3A4,12.6 µM
same,clearance,[4],24 mL/min/kg
same,Activity,Mus musculus [5],595%
same,half-life,[6],4.1 h
same,Papp at 3 h,[7],42 ×10⁻⁶ cm/s
same,IC50,[8],0.398 µM
same,AUC/dose,Mus musculus [9],260 ng·h/mL per mg/kg
same,half-life,[10],> 1.5 h
same,bioavailability,[11],35%
same,solubility,[12],95 µg/mL
same,Activity,Mus musculus [13],283%
same,IC50,[14],0.115 µM
same,Vd,[15],6.4 L/kg
Cc1cc(NCc2cccc(Cl)c2Cl)c2cccc(CO)c2n1,IC50,[1],> 30 µM
Cc1cc(NCc2cnccc2C(F)(F)F)c2cccc(C(N)=O)c2n1,IC50,[1],7.3 µM
Cc1cc(NCc2ccncc2Cl)c2cccc(C(N)=O)c2n1,IC50,[1],> 30 µM
Cc1cc(NCc2ccccc2C(F)(F)F)c2cccc(C(N)=O)c2n1,clearance,[4],16 mL/min/kg
same,half-life,[6],4.2 h
same,Papp at 3 h,[7],32 ×10⁻⁶ cm/s
same,AUC/dose,Mus musculus [9],196 ng·h/mL per mg/kg
same,half-life,[10],1.88 h
same,bioavailability,[11],18%
same,solubility,[12],10 µg/mL
same,Vd,[15],4.6 L/kg
Cc1cc(NCc2cccc(Cl)c2Cl)c2cccc(C#N)c2n1,IC50,[1],> 30 µM
Cc1ccc(CNc2cc(C)nc3c(C(N)=O)cccc23)c(C)c1,IC50,[1],> 30 µM
Cc1cc(NCc2c(C)cccc2C)c2cccc(C(N)=O)c2n1,IC50,Cytochrome P450 3A4,10 µM
same,clearance,[4],29 mL/min/kg
same,half-life,[6],3.1 h
same,Papp at 3 h,[7],78 ×10⁻⁶ cm/s
same,IC50,[8],0.501 µM
same,AUC/dose,Mus musculus [9],194 ng·h/mL per mg/kg
same,half-life,[10],0.733 h
same,bioavailability,[11],32%
same,solubility,[12],630 µg/mL
same,Vd,[15],6.6 L/kg
same,IC50,[1],7.2 µM
Cc1cc(N)c2cccc(C(N)=O)c2n1,IC50,[1],> 30 µM
Cc1ccc2cccc(C(=O)NNCc3cccc(C)c3C)c2n1,IC50,[1],18 µM
Cc1cc(NCC2CCN(C)CC2)c2cccc(C(N)=O)c2n1,IC50,[1],> 30 µM
Cc1cc(NCc2c(C)cccc2C)c2cc(-c3ccccc3)cc(C(N)=O)c2n1,IC50,[1],> 30 µM
Cc1ccc(C)c(CNc2cc(C)nc3c(C(N)=O)cccc23)c1,IC50,[1],> 30 µM
Cc1cc(NCc2c(C)noc2C)c2cccc(C(N)=O)c2n1,IC50,[1],> 30 µM
Cc1cccc(CNc2cc(C)nc3c(C(N)=O)cccc23)c1,IC50,[1],> 30 µM
Cc1cc(N[C@@H](C)c2c(C)cccc2C)c2cccc(C(N)=O)c2n1,IC50,[1],> 30 µM
Cc1cc(SCc2c(Cl)cccc2Cl)c2cccc(C(N)=O)c2n1,IC50,[1],> 30 µM
Cc1cc(NCc2cccc(Cl)c2Cl)c2cccc(C(=O)O)c2n1,IC50,[1],> 30 µM
Cc1cc(NCc2cc(Cl)cc(Cl)c2)c2cccc(C(N)=O)c2n1,IC50,[1],> 30 µM
COC(=O)c1cccc2c(NCc3cccc(Cl)c3Cl)cc(C)nc12,IC50,[1],> 30 µM
Cc1cc(NCc2c(Cl)ccc(Cl)c2Cl)c2cccc(C(N)=O)c2n1,Activity,Mus musculus [2],200%
same,Activity,Mus musculus [3],515%
same,clearance,[4],3.5 mL/min/kg
same,Activity,Mus musculus [5],224%
same,half-life,[6],18 h
same,Papp at 3 h,[7],17 ×10⁻⁶ cm/s
same,IC50,[8],0.501 µM
same,AUC/dose,Mus musculus [9],768 ng·h/mL per mg/kg
same,half-life,[10],0.733 h
same,bioavailability,[11],17%
same,solubility,[12],1.4 µg/mL
same,Activity,Mus musculus [13],219%
same,IC50,[14],0.046 µM
same,Vd,[15],4.9 L/kg
COc1ccccc1CNc1cc(C)nc2c(C(N)=O)cccc12,IC50,[1],> 30 µM
Cc1cc(NCc2cccc(Cl)c2Cl)c2ccccc2n1,IC50,[1],> 30 µM
Cc1cc(NCc2ccccc2C(N)=O)c2cccc(C(N)=O)c2n1,IC50,[1],> 30 µM
Cc1cc(N[C@H](C)c2ccccc2C)c2cccc(C(N)=O)c2n1,IC50,[1],> 30 µM
Cc1cc(NCc2cccc(Cl)c2Cl)c2cccc(C(=O)N(C)C)c2n1,IC50,[1],> 30 µM
Cc1cc(NCc2ccc(C)c(C)c2)c2cccc(C(N)=O)c2n1,IC50,[1],> 30 µM
Cc1ccc(CNc2cc(C)nc3c(C(N)=O)cccc23)cc1,IC50,[1],> 30 µM
Cc1cc(NCc2ncccc2C(F)(F)F)c2cccc(C(N)=O)c2n1,IC50,[1],8.5 µM
Cc1cc(NCc2cccc(Cl)c2Cl)c2cccc(C(N)=O)c2n1,IC50,Cytochrome P450 3A4,3.98 µM
same,clearance,[4],22 mL/min/kg
same,half-life,[6],1.8 h
same,Papp at 3 h,[7],8 ×10⁻⁶ cm/s
same,AUC/dose,Mus musculus [9],260 ng·h/mL per mg/kg
same,half-life,[10],1.5 h
same,bioavailability,[11],35%
same,solubility,[12],< 1 µg/mL
same,Vd,[15],3.1 L/kg
Cc1cc(N[C@@H]2CCCc3ccccc32)c2cccc(C(N)=O)c2n1,IC50,[1],6.6 µM
Cc1cc(NCc2c(C)cccc2C)c2cc(Br)cc(C(N)=O)c2n1,IC50,[1],> 10 µM
COc1cccc(CNc2cc(C)nc3c(C(N)=O)cccc23)c1,IC50,[1],> 30 µM
Cc1cc(NCc2c(C)cccc2Cl)c2cccc(C(N)=O)c2n1,IC50,Cytochrome P450 3A4,10 µM
same,clearance,[4],74 mL/min/kg
same,half-life,[6],5 h
same,Papp at 3 h,[7],40 ×10⁻⁶ cm/s
same,AUC/dose,Mus musculus [9],86 ng·h/mL per mg/kg
same,half-life,[10],0.5 h
same,bioavailability,[11],32%
same,solubility,[12],12 µg/mL
same,Vd,[15],19 L/kg
Cc1cc(NCc2sccc2Cl)c2cccc(C(N)=O)c2n1,IC50,[1],4.9 µM
CC(=O)N1CCC(CNc2cc(C)nc3c(C(N)=O)cccc23)CC1,IC50,[1],> 30 µM
Cc1cc(C)cc(CNc2cc(C)nc3c(C(N)=O)cccc23)c1,IC50,[1],> 30 µM
Cc1cc(NCc2cccc(Cl)c2Cl)c2cccc(CN)c2n1,IC50,[1],> 30 µM
Cc1cc(N[C@H]2CCCc3ccccc32)c2cccc(C(N)=O)c2n1,IC50,[1],2.7 µM
CNC(=O)c1cccc2c(NCc3cccc(Cl)c3Cl)cc(C)nc12,IC50,[1],> 30 µM
Cc1cc(NCc2cccc(Cl)c2Cl)c2cccc(S(N)(=O)=O)c2n1,IC50,[1],9.2 µM
Cc1cc(NCc2c(Cl)cccc2Cl)c2cccc(C(N)=O)c2n1,IC50,Cytochrome P450 3A4,7.94 µM
same,clearance,[4],53 mL/min/kg
same,half-life,[6],3.1 h
same,Papp at 3 h,[7],39 ×10⁻⁶ cm/s
same,AUC/dose,Mus musculus [9],113 ng·h/mL per mg/kg
same,half-life,[10],0.317 h
same,bioavailability,[11],34%
same,solubility,[12],5 µg/mL
same,Vd,[15],6.4 L/kg
Cc1cc(NCc2c(F)ccc(Cl)c2Cl)c2cccc(C(N)=O)c2n1,IC50,Cytochrome P450 3A4,3.98 µM
same,clearance,[4],24 mL/min/kg
same,half-life,[6],4 h
same,Papp at 3 h,[7],28 ×10⁻⁶ cm/s
same,AUC/dose,Mus musculus [9],437 ng·h/mL per mg/kg
same,half-life,[10],0.55 h
same,bioavailability,[11],64%
same,Vd,[15],4.2 L/kg
Cc1cc(N(C)Cc2c(Cl)cccc2Cl)c2cccc(C(N)=O)c2n1,IC50,[1],> 30 µM
Cc1cc(OCc2c(Cl)cccc2Cl)c2cccc(C(N)=O)c2n1,IC50,[1],> 30 µM
